Literature values, collected in publication PMC10787790, “Isatin-tethered halogen-containing acylhydrazone derivatives as monoamine oxidase inhibitor with neuroprotective effect” (Scientific Reports, 2024).

Tested on: MAO-B
Conditions: printed in Figure 2 (design strategy), no reference given; cited from earlier work

O=C1Nc2ccc(Cl)cc2/C1=N\NC(=O)c1ccc2c(c1)OCO2 [Compound 2A]
IC50: 89 nM
